Entries after “also recorded” stand apart in the source; their conditions may differ.
Assays:
human 5-HT2BR = target: T1, human 5-HT2BR (Homo sapiens, UniProt P41595); assay: Functionality assay, HTRF quantification of IP1 accumulation in CHO-K1 cells; format: cell-based
T1 construct: 355260 (IP1); host or cells: CHO-K1

5-HT2CR = target: T2, 5-HT2CR (Homo sapiens, UniProt P28335); assay: Functionality assay, [35S]GTPγS binding; format: biochemical; conditions: inhibition of 5-HT (100 nM) induced [35S]GTPγS binding; read-out: IC50, antagonistic activity, human 5-HT2C
T2 construct: 355200 (GTPγS); host or cells: CHO-K1
T2 sequence (P28335 33-458): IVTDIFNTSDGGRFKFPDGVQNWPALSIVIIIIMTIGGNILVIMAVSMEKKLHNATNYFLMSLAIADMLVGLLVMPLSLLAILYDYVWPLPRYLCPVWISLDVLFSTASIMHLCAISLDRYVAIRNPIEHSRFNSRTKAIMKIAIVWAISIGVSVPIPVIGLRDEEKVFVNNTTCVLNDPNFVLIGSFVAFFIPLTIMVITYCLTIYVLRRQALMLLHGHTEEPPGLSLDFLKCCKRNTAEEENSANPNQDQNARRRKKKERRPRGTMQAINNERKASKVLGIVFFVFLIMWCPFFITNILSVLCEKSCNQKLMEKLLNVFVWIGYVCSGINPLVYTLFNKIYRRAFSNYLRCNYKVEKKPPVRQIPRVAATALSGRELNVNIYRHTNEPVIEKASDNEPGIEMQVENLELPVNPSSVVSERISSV
Experimental: (§1) The binding profile of AM1476 was evaluated for binding to human 5‐HT2AR, 5‐HT2BR, and 5‐HT2CR in radioligand binding assays using Chinese hamster ovary (CHO‐K1) cells overexpressing human receptors (in vitro assays 271650, 271700, and 271800; Eurofins Panlabs Discovery). AM1476 was evaluated at 0.1, 1, 10, 100, 1,000, and 10,000 nM (5‐HT2BR) or at 1, 10, 100, 1,000, and 10,000 nM (5‐HT2AR and 5‐HT2CR). Human 5‐HT2AR and 5‐HT2BR functionality was measured with homogeneous time‐resolved fluorescence quantification of IP1 accumulation in CHO‐K1 cells (in vitro assays 355250 and 355260). Compounds creating a ≥50% inhibition of 5‐HT (5 nM) induced fluorescence response specified receptor antagonist activity. 5‐HT2CR functionality was assessed with [35S] GTPγS for quantification of bound GTPγS. Compounds creating a ≥50% inhibition of 5‐HT (100 nM) induced [35S] GTPγS binding response specified receptor antagonist activity (in vitro assay 355200). AM1476 was evaluated at 0.1, 0.3, 1, 3, 10, 30, and 300 nM (5‐HT2BR) or 1, 10, 100, 1,000, and 10,000 nM (5‐HT2AR and 5‐HT2CR). […] Mouse 5‐HT2BR functionality was measured in a calcium influx assay (Charles River) in CHO‐KI cells expressing the mouse 5‐HT2BR using a calcium sensitive dye and a fluorescence imaging plate reader (FLIPRTETRA) instrument. AM1476 was evaluated at 0.3, 1, 3, 10, 30, 100, 300, and 1,000 nM.

Mouse 5-HT2BR = target: T3, Mouse 5-HT2BR (Mus musculus, UniProt Q02152); assay: Calcium influx functionality assay (FLIPR) in CHO-K1 cells expressing mouse 5-HT2BR; format: cell-based; conditions: agonist 5 nM α-methylserotonin
T3 construct: host or cells: CHO-K1
T3 sequence (Q02152 whole entry): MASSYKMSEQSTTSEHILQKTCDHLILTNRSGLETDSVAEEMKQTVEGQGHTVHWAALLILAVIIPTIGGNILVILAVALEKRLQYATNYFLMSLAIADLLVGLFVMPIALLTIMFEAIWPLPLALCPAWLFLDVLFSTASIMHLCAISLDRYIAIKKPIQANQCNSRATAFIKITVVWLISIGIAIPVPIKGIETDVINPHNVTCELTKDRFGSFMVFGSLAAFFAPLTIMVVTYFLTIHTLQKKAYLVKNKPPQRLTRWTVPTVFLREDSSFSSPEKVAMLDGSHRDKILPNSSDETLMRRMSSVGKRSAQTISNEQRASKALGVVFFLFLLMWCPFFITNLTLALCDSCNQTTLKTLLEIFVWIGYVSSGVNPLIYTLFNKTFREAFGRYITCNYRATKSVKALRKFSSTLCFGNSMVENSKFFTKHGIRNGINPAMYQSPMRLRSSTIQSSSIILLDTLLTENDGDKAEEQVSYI
Experimental: as §1, with “nM. […]” for “nM.”

[1] = system: approximately 200 targets; assay: Eurofins Panlabs Spectrum screen selectivity panel (enzymatic and receptor binding assays); conditions: no binding defined as <50% inhibition at 10 μM
Text: (§2) Effects were considered significant if AM1476's mean value was three or more SDs above the vehicle control mean in the agonist assay or three or more SDs below the positive control agonist (5‐nM α‐methylserotonin) mean in the antagonist assay. AM1476 was screened for selectivity against approximately 200 targets using a Eurofins Panlabs Spectrum screen panel including enzymatic and receptor binding assays.

[2] = target: T4, Serotonin (5-Hydroxytryptamine) 5-HT1B (hu) (Homo sapiens, UniProt P28222); assay: Receptor binding, Eurofins Panlabs 271200
T4 construct: Eurofins Panlabs 271200
T4 sequence (P28222 whole entry): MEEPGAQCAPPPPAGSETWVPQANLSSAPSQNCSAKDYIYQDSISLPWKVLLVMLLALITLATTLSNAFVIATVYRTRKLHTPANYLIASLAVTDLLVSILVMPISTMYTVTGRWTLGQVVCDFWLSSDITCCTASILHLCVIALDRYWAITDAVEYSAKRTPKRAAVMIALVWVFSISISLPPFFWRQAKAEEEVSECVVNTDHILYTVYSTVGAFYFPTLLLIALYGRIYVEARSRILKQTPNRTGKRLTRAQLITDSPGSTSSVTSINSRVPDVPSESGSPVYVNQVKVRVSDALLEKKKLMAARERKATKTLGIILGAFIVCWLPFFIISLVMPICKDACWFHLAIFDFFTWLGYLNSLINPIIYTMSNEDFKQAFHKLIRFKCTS
Text: as §2

[3] = target: Serotonin (5-Hydroxytryptamine) 5-HT4 (gp) (Cavia porcellus, UniProt O70528); assay: Receptor binding, Eurofins Panlabs 272000; parameters: species or system guinea pig
Sequence of Serotonin (5-Hydroxytryptamine) 5-HT4 (gp) (O70528 1-358 limits assumed): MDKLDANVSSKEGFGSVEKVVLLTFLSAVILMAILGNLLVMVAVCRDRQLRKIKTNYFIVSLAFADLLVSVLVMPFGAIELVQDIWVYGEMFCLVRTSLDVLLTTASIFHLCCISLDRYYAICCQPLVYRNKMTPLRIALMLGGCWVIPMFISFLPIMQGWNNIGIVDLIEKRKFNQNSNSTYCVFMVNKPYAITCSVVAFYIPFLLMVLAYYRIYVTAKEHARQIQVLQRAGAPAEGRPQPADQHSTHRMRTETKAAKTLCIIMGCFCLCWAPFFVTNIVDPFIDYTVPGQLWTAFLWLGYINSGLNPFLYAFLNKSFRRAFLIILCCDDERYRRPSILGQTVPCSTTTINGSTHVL
Text: as §2

[4] = target: T5, Serotonin (5-Hydroxytryptamine) 5-HT6 (hu) (Homo sapiens, UniProt P50406); assay: Receptor binding, Eurofins Panlabs 272200
T5 construct: 318000 (adenylyl cyclase)
T5 sequence (P50406 whole entry): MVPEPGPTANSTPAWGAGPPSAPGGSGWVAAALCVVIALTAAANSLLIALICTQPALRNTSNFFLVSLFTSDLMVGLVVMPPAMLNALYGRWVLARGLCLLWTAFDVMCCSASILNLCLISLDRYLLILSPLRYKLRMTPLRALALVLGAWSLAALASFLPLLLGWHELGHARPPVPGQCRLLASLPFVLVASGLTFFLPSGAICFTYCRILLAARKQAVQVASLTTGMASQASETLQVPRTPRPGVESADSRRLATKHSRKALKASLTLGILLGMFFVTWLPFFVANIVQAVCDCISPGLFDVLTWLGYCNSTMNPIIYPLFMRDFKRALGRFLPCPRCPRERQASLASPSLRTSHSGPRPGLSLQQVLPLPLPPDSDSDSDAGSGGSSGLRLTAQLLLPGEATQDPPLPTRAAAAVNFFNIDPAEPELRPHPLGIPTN
Text: as §2

Histamine H1 (hu) = target: T6, Histamine H1 (hu) (Homo sapiens, UniProt P35367); assay: Functionality assay, GTPγS Binding, Eurofins Panlabs 313200; format: biochemical
T6 construct: Eurofins Panlabs 313200
T6 sequence (P35367 whole entry): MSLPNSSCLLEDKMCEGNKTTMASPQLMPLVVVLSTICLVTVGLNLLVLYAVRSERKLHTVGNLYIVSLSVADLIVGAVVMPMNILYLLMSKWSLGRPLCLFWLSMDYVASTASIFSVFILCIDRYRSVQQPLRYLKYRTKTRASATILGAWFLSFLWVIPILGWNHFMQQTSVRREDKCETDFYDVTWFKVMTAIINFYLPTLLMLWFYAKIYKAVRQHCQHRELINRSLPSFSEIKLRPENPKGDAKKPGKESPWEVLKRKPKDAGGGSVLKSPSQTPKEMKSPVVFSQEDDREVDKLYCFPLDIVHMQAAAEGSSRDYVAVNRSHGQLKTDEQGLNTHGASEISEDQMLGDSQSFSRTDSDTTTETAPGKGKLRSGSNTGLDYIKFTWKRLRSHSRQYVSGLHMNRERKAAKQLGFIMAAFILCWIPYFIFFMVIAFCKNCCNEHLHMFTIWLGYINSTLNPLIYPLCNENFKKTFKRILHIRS
Text: as §2

[5] = target: T7, Uptake, Norepinephrine (hu) (Homo sapiens, UniProt P23975); assay: Functionality assay, Uptake, Eurofins Panlabs 302000; format: cell-based
T7 construct: Eurofins Panlabs 302000
T7 sequence (P23975 whole entry): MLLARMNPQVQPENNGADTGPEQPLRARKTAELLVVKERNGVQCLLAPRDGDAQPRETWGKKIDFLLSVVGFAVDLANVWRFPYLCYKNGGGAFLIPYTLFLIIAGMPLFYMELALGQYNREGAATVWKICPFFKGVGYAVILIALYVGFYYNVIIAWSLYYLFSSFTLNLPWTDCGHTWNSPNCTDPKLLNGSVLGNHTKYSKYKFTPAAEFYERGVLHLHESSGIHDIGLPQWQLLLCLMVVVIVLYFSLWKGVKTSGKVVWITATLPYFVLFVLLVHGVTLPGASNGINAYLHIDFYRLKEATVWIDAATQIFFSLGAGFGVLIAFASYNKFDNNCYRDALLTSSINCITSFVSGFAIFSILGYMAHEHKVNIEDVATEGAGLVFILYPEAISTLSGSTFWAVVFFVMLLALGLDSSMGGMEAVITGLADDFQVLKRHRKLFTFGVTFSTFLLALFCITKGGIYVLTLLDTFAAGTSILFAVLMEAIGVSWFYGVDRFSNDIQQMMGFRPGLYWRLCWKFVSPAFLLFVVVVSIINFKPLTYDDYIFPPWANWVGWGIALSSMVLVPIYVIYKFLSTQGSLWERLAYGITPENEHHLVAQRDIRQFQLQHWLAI
Text: as §2

Tsk-1 mice = assay: Tsk-1 mouse model of skin fibrosis; format: in vivo
Experimental: AM1476 was dissolved in sterile distilled water for the ex vivo and in vivo experiments. A concentration of 30 μM was applied for the ex vivo experiment. For the in vivo experiments, 1, 3, or 10 mg/kg was administered orally once or twice daily.
In the murine Tsk‐1 model of SSc, a dominant mutation in the fibrillin 1 gene leads to an SSc‐like disease, with minor inflammatory infiltrates, autoantibody production, and fibrosis of the skin. This model reflects the later stages of SSc characterized by noninflammatory self‐sustaining fibrosis. Eight to 12 mice per group were analyzed. Treatment was initiated at an age of five weeks, and the outcome was analyzed at an age of 10 weeks.[11]
Skin samples were fixed in 4% formalin for six hours and embedded in paraffin. Five‐micrometer sections were cut and stained with hematoxylin and eosin (H&E). The dermal thickness was quantified on H&E‐stained sections using images captured with a light microscope (Nikon eclipse 80i) at 100‐fold magnification by manually measuring the distance between the epidermal‐dermal junction and the dermal‐subcutaneous fat junction at four sites per mouse.[15], [16] For lung samples, the whole left lung was fixed in 4% formalin for six hours and embedded in paraffin. Five‐micrometer sections were cut and stained with trichrome and sirius red. Histologic readouts were evaluation of the fibrotic area as the percentage of the total lung area in sirius red–stained sections (two sections per mouse) and quantification of pulmonary changes using the Ashcroft score (four sections per mouse).[17], [18]
The amount of collagen protein in skin and lung samples was determined by hydroxyproline assay.[19], [20] After digestion in 6 M HCl for three hours at 120°C, the pH of the samples was adjusted to a pH range of 6–7 with 6 M NaOH. Afterward, 0.06 M chloramine T was added to each sample and incubated for 20 minutes at room temperature. Next, 3.15 M perchloric acid and 20% p‐dimethylaminobenzaldehyde were added, and samples were incubated for an additional 20 minutes at 60°C. The absorbance was determined at 557 nm with a Spectra MAX 190 microplate spectrophotometer. Absolute values were determined using a standard curved generated with type I collagen (Sigma‐Aldrich).
Myofibroblasts are characterized by the expression of α‐smooth muscle actin (α‐SMA). Fibroblasts positive for α‐SMA were detected by immunohistochemistry staining with monoclonal anti–α‐SMA antibodies (clone 1A4, Sigma‐Aldrich). The expression was visualized with horseradish peroxidase–labeled secondary antibodies and 3,3‐diaminobenzidine tetra hydrochloride (Sigma‐Aldrich). Monoclonal mouse IgG antibodies (Calbiochem) were used as controls. Images of sections stained for α‐SMA were captured on a light microscope (Nikon eclipse 80i). The myofibroblast number was manually evaluated at four different areas at 200‐fold magnification. Myofibroblasts were defined as α‐SMA positive, single, and spindle‐shaped cells in the dermis.[5], [21]

[6] = all three doses, vs vehicle-treated 10-week-old Tsk-1 mice

T1 sequence (P41595 whole entry): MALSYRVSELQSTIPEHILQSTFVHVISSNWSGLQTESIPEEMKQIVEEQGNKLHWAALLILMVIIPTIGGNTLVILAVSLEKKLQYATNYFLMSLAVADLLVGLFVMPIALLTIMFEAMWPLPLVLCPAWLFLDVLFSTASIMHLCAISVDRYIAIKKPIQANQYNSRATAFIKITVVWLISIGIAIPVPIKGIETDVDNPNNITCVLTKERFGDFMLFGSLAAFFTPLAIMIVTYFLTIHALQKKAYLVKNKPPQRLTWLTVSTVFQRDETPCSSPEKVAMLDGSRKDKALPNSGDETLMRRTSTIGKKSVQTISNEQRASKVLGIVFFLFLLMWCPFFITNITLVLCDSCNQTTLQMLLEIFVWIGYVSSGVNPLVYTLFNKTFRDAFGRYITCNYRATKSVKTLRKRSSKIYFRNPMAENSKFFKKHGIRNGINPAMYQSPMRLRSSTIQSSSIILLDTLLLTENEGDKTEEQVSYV

`C[C@@H]1CN(C(=N)N)N=C1c1ccc(F)cc1O` [AM1476] was tested, and the “agonistic activity at 5-HT2BR” value (human 5-HT2BR) was “devoid of agonistic activity; also recorded: no agonism”, the IC50 (human 5-HT2BR; inhibition of 5-HT (5 nM) induced IP1 response, CHO-K1, read-out: IC50, antagonistic activity, human 5-HT2B) was 0.0058 µM and the IC50 (5-HT2CR) was 3.1 µM. For the same molecule, the IC50 (Mouse 5-HT2BR) was 0.0115 µM, the “binding to approximately 200 other targets” value [1] was “no binding to the majority of targets” and the “% Inhibition at 10 µM, 5-HT1B (hu)” value [2] was 19%. For the same molecule, the “% Inhibition at 1 µM, 5-HT4 (gp)” value ([3]; 1 µM (value in brackets)) was 34%, the “% Inhibition at 10 µM, 5-HT4 (gp)” value ([3]; 10 µM) was 74% and the “% Inhibition at 1 µM, 5-HT6 (hu)” value ([4]; 1 µM (value in brackets)) was 51%. For the same molecule, the “% Inhibition at 10 µM, 5-HT6 (hu)” value ([4]; 10 µM) was 90%, the IC50 (Histamine H1 (hu)) was 28 µM and the “agonistic activity, Histamine H1” value (Histamine H1 (hu); at 30 µM) was “No significant agonistic activity at 30 µM”. For the same molecule, the IC50 [5] was 3.78 µM, the “hydroxyproline content vs five-week-old Tsk-1 mice (pretreatment level)” value (Tsk-1 mice; 10 mg/kg qd or 10 mg/kg bid) was “comparable” and the “hypodermal thickness vs five-week-old Tsk-1 mice (pretreatment level)” value (Tsk-1 mice; 10 mg/kg qd or 10 mg/kg bid) was “comparable”. For the same molecule, the hydroxyproline content (Tsk-1 mice; [6]) was “reduced”, the hypodermal thickening (Tsk-1 mice; [6]) was “reduced” and the myofibroblast counts (Tsk-1 mice; [6]) was “reduced”.
